Among the data in PubChem BioAssay AID330 (DTP/NCI, 2004) are T/C values, retold here.

“And” between values parts separate entries of the source, which are not always exact repeats. Equal entries are not always repeated. Inconclusive results and toxic doses are left out.

The test has as its system P388 leukemia ip, CD2F1 mice, survival T/C. The experiment in a line: NCI In Vivo Anticancer Drug Screen. Data for tumor model P388 Leukemia (intraperitoneal) in CD2F1 (CDF1) mice. The conditions noted are these: endpoint: median survival time, higher = longer survival. The essentials: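 Mice carrying the transplanted tumor received test compound or vehicle. Survival was recorded in each group, and the value is the treated-group measurement divided by that of the vehicle-treated control group.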

Where [1] appears, read: dose: 50.0 mg/kg/injection, schedule: Q01DX009 (ip), vehicle: Klucel (hydroxypropylcellulose) (HPC).
Setting [2] is: dose: 100.0 mg/kg/injection, schedule: Q01DX009 (ip), vehicle: Klucel (hydroxypropylcellulose) (HPC).
Where [3] appears, read: dose: 25.0 mg/kg/injection, schedule: Q04DX003 (ip), vehicle: Klucel (hydroxypropylcellulose) (HPC).
Setting [4] is: dose: 25.0 mg/kg/injection, schedule: Q04DX003 (ip), vehicle: saline with Tween-80.
The mark [5] stands for this setting: dose: 50.0 mg/kg/injection, schedule: Q01DX005 (ip), vehicle: saline.
Setting [6] is: dose: 100.0 mg/kg/injection, schedule: Q01DX005 (ip), vehicle: saline.
Where [7] appears, read: dose: 200.0 mg/kg/injection, schedule: Q01DX005 (ip), vehicle: saline.
The mark [8] stands for this setting: dose: 50.0 mg/kg/injection, schedule: Q04DX003 (ip), vehicle: saline with Tween-80.
Where [9] appears, read: dose: 100.0 mg/kg/injection, schedule: Q04DX003 (ip), vehicle: saline with Tween-80.

On to `CCSc1nc2ccc(NCn3nnc4ccccc43)cc2s1`, for which the T/C by setting is: (dose: 60.0 mg/kg/injection, schedule: Q01DX005 (ip), vehicle: Klucel (hydroxypropylcellulose) (HPC)) 98 % of control; (dose: 120.0 mg/kg/injection, schedule: Q01DX005 (ip), vehicle: Klucel (hydroxypropylcellulose) (HPC)) 89 % of control; (dose: 240.0 mg/kg/injection, schedule: Q01DX005 (ip), vehicle: Klucel (hydroxypropylcellulose) (HPC)) 90 % of control.

With `O=C1CCC2CCCCC2N1` (configuration not stated), the T/C is 94 % of control under setting [1] and 86 % of control under setting [2].

Consider `FC(F)(F)c1nc2nc(Cl)c(Cl)nc2[nH]1`, for which the T/C is 100 % of control (dose: 25.0 mg/kg/injection, schedule: Q04DX003 (ip), vehicle: other) and 109 % of control (dose: 50.0 mg/kg/injection, schedule: Q04DX003 (ip), vehicle: other).

As to `NC(CCS(=O)(=O)NO)C(=O)O` (configuration not stated), the T/C reads like this: (dose: 12.5 mg/kg/injection, schedule: Q01DX009 (ip), vehicle: water) 89 % of control; (dose: 25.0 mg/kg/injection, schedule: Q01DX009 (ip), vehicle: water) 99 % of control; (dose: 50.0 mg/kg/injection, schedule: Q01DX009 (ip), vehicle: water) 90 % of control; (dose: 100.0 mg/kg/injection, schedule: Q01DX009 (ip), vehicle: water) 102 % of control; (dose: 200.0 mg/kg/injection, schedule: Q01DX009 (ip), vehicle: water) 99 % of control.

Turning to `O=[N+]([O-])c1ccc(N/N=C/CCl)c([N+](=O)[O-])c1`, the T/C reads like this: (dose: 11.0 mg/kg/injection, schedule: Q04DX003 (ip), vehicle: Klucel (hydroxypropylcellulose) (HPC)) 100 % of control; (dose: 11.0 mg/kg/injection, schedule: Q04DX003 (ip), vehicle: saline with Tween-80) 108 % of control; (dose: 16.5 mg/kg/injection, schedule: Q04DX003 (ip), vehicle: Klucel (hydroxypropylcellulose) (HPC)) 100 % of control; (dose: 16.5 mg/kg/injection, schedule: Q04DX003 (ip), vehicle: saline with Tween-80) 100 % of control; under setting [3], 98 % of control; under setting [4], 108 % of control. The T/C (dose: 37.5 mg/kg/injection, schedule: Q04DX003 (ip), vehicle: Klucel (hydroxypropylcellulose) (HPC)) was 97 % of control and the T/C (dose: 37.5 mg/kg/injection, schedule: Q04DX003 (ip), vehicle: saline with Tween-80) was 104 % of control.

Regarding `COc1ccc(CCN2C(=O)C(=O)N(c3ccc(C)cc3)C2=O)cc1OC`, the T/C is 96 % of control under setting [1]; 97 % of control under setting [2]; 104 % of control (dose: 200.0 mg/kg/injection, schedule: Q01DX009 (ip), vehicle: Klucel (hydroxypropylcellulose) (HPC)).

`COc1cc(N(CCCl)CCCl)ccc1NC(=O)c1ccccc1`: the T/C is, setting by setting: (dose: 6.25 mg/kg/injection, schedule: Q01DX009 (ip), vehicle: saline) 150 % of control; (dose: 6.25 mg/kg/injection, schedule: Q04DX003 (ip), vehicle: saline with Tween-80) 109 % of control; (dose: 12.5 mg/kg/injection, schedule: Q01DX009 (ip), vehicle: saline) 168 % of control; (dose: 12.5 mg/kg/injection, schedule: Q04DX003 (ip), vehicle: saline with Tween-80) 118 % of control; (dose: 16.5 mg/kg/injection, schedule: Q04DX003 (ip), vehicle: saline sonified) 113 % of control; (dose: 25.0 mg/kg/injection, schedule: Q01DX009 (ip), vehicle: saline) 100 % of control. In addition, the T/C (dose: 37.5 mg/kg/injection, schedule: Q04DX003 (ip), vehicle: saline sonified) was 181 % of control.

For the compound `Nc1ncnc2c1nc([Se])n2C1OC(CO)C(O)C1O` (configuration not stated), the T/C was 97 % of control (dose: 25.0 mg/kg/injection, schedule: Q01DX005 (ip), vehicle: other); 97 % of control (dose: 100.0 mg/kg/injection, schedule: Q01DX005 (ip), vehicle: other); 86 % of control (dose: 200.0 mg/kg/injection, schedule: Q01DX005 (ip), vehicle: other); 105 % of control (dose: 400.0 mg/kg/injection, schedule: Q01DX005 (ip), vehicle: other).

In the case of `CCN(CC)CCCNc1ccc([N+](=O)[O-])c2no[n+]([O-])c12`, the T/C is 99 % of control (dose: 50.0 mg/kg/injection, schedule: Q01DX009 (ip), vehicle: saline) and 100 % of control (dose: 100.0 mg/kg/injection, schedule: Q01DX009 (ip), vehicle: saline).

Turning to `CCCS(=N)(=O)CCC(N)C(=O)O` (configuration not stated), the T/C is 93 % of control (dose: 25.0 mg/kg/injection, schedule: Q01DX005 (ip), vehicle: saline); 98 % of control under setting [5]; 107 % of control under setting [6]; 112 % of control under setting [7].

Regarding `COc1cccc(C=O)c1OS(=O)(=O)c1ccc(C)cc1`, the T/C reads like this: (dose: 25.0 mg/kg/injection, schedule: Q01DX009 (ip), vehicle: other) 101 % of control; (dose: 50.0 mg/kg/injection, schedule: Q01DX009 (ip), vehicle: other) 108 % of control; (dose: 100.0 mg/kg/injection, schedule: Q01DX009 (ip), vehicle: other) 108 % of control.

Consider `Cc1ccnc2n[nH]nc12`, for which the T/C (dose: 100.0 mg/kg/injection, schedule: Q04DX002 (ip), vehicle: water) is 109 % of control; the T/C (dose: 200.0 mg/kg/injection, schedule: Q04DX002 (ip), vehicle: water) was 107 % of control; the T/C (dose: 400.0 mg/kg/injection, schedule: Q04DX002 (ip), vehicle: water) is 103 % of control.

`Cc1cc(C)c(O)c(CS(=O)(=O)Cc2cc(C)cc(C)c2O)c1`: the T/C was 101 % of control (dose: 100.0 mg/kg/injection, schedule: Q04DX002 (ip), vehicle: saline); 97 % of control (dose: 200.0 mg/kg/injection, schedule: Q04DX002 (ip), vehicle: saline); 91 % of control (dose: 400.0 mg/kg/injection, schedule: Q04DX002 (ip), vehicle: saline).

With `Cc1ccc(S(=O)(=O)NCCN(CCN(CCNS(=O)(=O)c2ccc(C)cc2)S(=O)(=O)c2ccc(C)cc2)S(=O)(=O)c2ccc(C)cc2)cc1`, the T/C is 101 % of control (dose: 50.0 mg/kg/injection, schedule: Q01DX009 (ip), vehicle: saline with Tween-80); 92 % of control (dose: 100.0 mg/kg/injection, schedule: Q01DX009 (ip), vehicle: saline with Tween-80); 90 % of control (dose: 200.0 mg/kg/injection, schedule: Q01DX009 (ip), vehicle: saline with Tween-80).

Turning to `NC(CP(=O)(O)O)C(=O)O` (configuration not stated), the T/C under setting [5] was 106 % of control, the T/C under setting [6] is 101 % of control and the T/C under setting [7] is 91 % of control.

As to `Cn1c(=O)ccc2ccc(N(CCO)CCO)nc21`, the T/C is 98 % of control under setting [8]; 94 % of control under setting [9]; 103 % of control (dose: 200.0 mg/kg/injection, schedule: Q04DX003 (ip), vehicle: saline with Tween-80).

For the compound `NC(CNC(=O)CBr)C(=O)O` (configuration not stated), the T/C (dose: 6.25 mg/kg/injection, schedule: Q01DX005 (ip), vehicle: water) was 117 % of control and 118 % of control; the T/C (dose: 100.0 mg/kg/injection, schedule: Q01DX005 (ip), vehicle: water) was 152 % of control.

In the case of `CCCCCCCCCCCC(=O)NCCc1ccc(O)c(O)c1`, the T/C was 113 % of control under setting [3]; 115 % of control (dose: 50.0 mg/kg/injection, schedule: Q04DX003 (ip), vehicle: Klucel (hydroxypropylcellulose) (HPC)); 119 % of control and 120 % of control (dose: 100.0 mg/kg/injection, schedule: Q04DX003 (ip), vehicle: Klucel (hydroxypropylcellulose) (HPC)); 113 % of control and 120 % of control (dose: 200.0 mg/kg/injection, schedule: Q04DX003 (ip), vehicle: Klucel (hydroxypropylcellulose) (HPC)); 89 % of control (dose: 400.0 mg/kg/injection, schedule: Q04DX003 (ip), vehicle: Klucel (hydroxypropylcellulose) (HPC)).

Turning to `O=C1NC2(CCCC2)C(=O)N1CCCN(CCCl)CCCl`, the T/C reads like this: (dose: 1.5 mg/kg/injection, schedule: Q01DX005 (ip), vehicle: saline) 173 % of control; (dose: 3.0 mg/kg/injection, schedule: Q01DX005 (ip), vehicle: saline) 176 % of control and 185 % of control; (dose: 6.0 mg/kg/injection, schedule: Q01DX005 (ip), vehicle: saline) 179 % of control and 204 % of control; (dose: 12.0 mg/kg/injection, schedule: Q01DX005 (ip), vehicle: saline) 203 % of control and 288 % of control.

As to `COc1ccc2c(c1)CCC1(C)C2=CC(=O)/C1=C\[O-].COc1ccc2c(c1)CCC1(C)C2=CC(=O)/C1=C\[O-].[Cu+2]` (configuration not stated), the T/C under setting [4] was 90 % of control, the T/C under setting [8] was 90 % of control and the T/C under setting [9] is 86 % of control.
